# Results reported in PMC5175284, “Mechanistic Study of Tetrahydrofuran- acetogenins In Triggering Endoplasmic Reticulum Stress Response-apotoposis in Human Nasopharyngeal Carcinoma” (Scientific Reports, 2016).
# Like-named read-outs stand apart in the source and are kept apart here. * marks the point of attachment. Cbz = O=C(OCc1ccccc1)*; CH2F = FC*
# Assays:
# FaDu cells = assay: Growth inhibition assay (MTT), FaDu; assay type: cell-based; settings: Homo sapiens, treated for three generations, read-out: Growth inhibitory activity IC50, FaDu
# Protocol: (§1) The colorimetric assay for cellular growth and survival was performed as described by Hansen et al., with slight modifications. Pre-determinate numbers of cells were seeded in a 96-well microplate and designated compounds at various concentrations were added for the indicated time period. MTT containing solution was added after compound treatment and conversion of MTT to formazan by metabolically viable cells was measured by absorbance at 490 nm in a 96-well microtiter plate reader. The percentage of conversion by mock-treated control cells was used to evaluate the effect of the chemicals on cell growth and to determine the IC50 concentration.
# HONE R-MTX cells = assay: Growth inhibition assay (MTT), methotrexate-resistant HONE-1; assay type: cell-based; settings: Homo sapiens, HONE1, drug-resistant cell line, three generations, read-out: Growth inhibitory activity IC50, HONE R-MTX
# Protocol: as §1
# NPC-TW01 cells [1] = assay: Growth inhibition assay (MTT), NPC-TW01; assay type: cell-based; settings: Homo sapiens
# Protocol: as §1
# HT-1080 cells = assay: Growth inhibition assay (MTT), HT-1080; assay type: cell-based; settings: Homo sapiens, treated for three generations, read-out: Growth inhibitory activity IC50, HT-1080
# Protocol: as §1
# HONE-1 cells = assay: Growth inhibition assay (MTT), HONE-1; assay type: cell-based; settings: Homo sapiens, HONE1, treated for three generations, read-out: Growth inhibitory activity IC50, HONE-1
# Protocol: as §1
# Jurkat cells = assay: Growth inhibition assay (MTT), Jurkat; assay type: cell-based; settings: Homo sapiens, treated for three generations, read-out: Growth inhibitory activity IC50, Jurkat
# Protocol: as §1
# H226 cells = assay: Growth inhibition assay (MTT), H226; assay type: cell-based; settings: Homo sapiens, NCI-H226, treated for three generations, read-out: Growth inhibitory activity IC50, H226
# Protocol: as §1
# TW01-R-MTX cells = assay: Growth inhibition assay (MTT), methotrexate-resistant NPC-TW01; assay type: cell-based; settings: Homo sapiens, drug-resistant cell line, three generations, read-out: Growth inhibitory activity IC50, TW01-R-MTX
# Protocol: as §1
# Hep 3B cells = assay: Growth inhibition assay (MTT), Hep 3B; assay type: cell-based; settings: Homo sapiens, Hep3B, treated for three generations, footnote a, read-out: Growth inhibitory activity IC50, Hep 3B
# Protocol: as §1
# Detroit 551 cells = assay: Growth inhibition assay (MTT), Detroit 551 normal fibroblasts; assay type: cell-based; settings: Homo sapiens, treated for three generations, read-out: Growth inhibitory activity IC50, Detroit 551
# Protocol: as §1
# NPC-TW01 xenograft = assay: NPC-TW01 s.c. xenograft antitumor experiment; assay type: in vivo, BALB/c nude mice; settings: squamostatin A 0.5 mg/kg i.p. every three days; paclitaxel 10 mg/kg weekly
# Protocol: For the antitumor xenograft experiments, specific pathogen–free male athymic BALB/c nude mice, 6 to 8 weeks of age, were inoculated with 1 × 10^6 of exponential growth viable NPC-TW01 cells at the right flank of mice and mice were randomly divided into three groups (8 in each group). Tumor-implanted mice were treated i.p. with vehicle (5% DMSO/10% cremophor/85% saline) or 0.5 mg/kg squamostatin A every three days. Paclitaxel (10 mg/kg, once a week) was used as a positive control. Tumor size was measured every three days with a caliper, and tumor volume was calculated by the following formula: V = (1/2) × […]. At the end of the experiments, the animals were euthanized by carbon dioxide inhalation, followed by cervical dislocation. The animal experiments were supervised and approved by the Institutional Animal Care and Use Committee (IACUC) of China Medical University (Taichung, Taiwan). All animal studies were performed in accordance with the Animal Protection Act of Taiwan.
# NPC-TW01 cells [2] = assay: Caspase inhibition assay (MTT cell survival); assay type: cell-based, human; settings: pretreated 1 hour, squamostatin A for 72 hours
# Protocol: For caspase inhibition experiments, cell-permeable and irreversible inhibitors of caspase-12 were added to the medium one hour before the administration of squamostatin A. Cell survival was determined using the MTT assay to evaluate the effects of the test compound on cell growth, as described previously.
# SCC-15 cells = assay: Growth inhibition assay (MTT), SCC-15; assay type: cell-based; settings: Homo sapiens, Supplemental Table 1, read-out: Growth inhibitory activity IC50, SCC-15
# Protocol: as §1
# NPC-TW01 cells [3] = assay: Mitochondrial membrane potential (DiOC6 staining, flow cytometry); assay type: cell-based, human; settings: IC50 concentration, 24 hours
# Protocol: To measure the change of mitochondrial potential transition (MPT), THF-ACGs treated cells were labeled with 100 nM DiOC6, harvested and suspended in PBS. The intensity of DiOC6 in cells was measured using FACScan flow cytometer.
# NPC-TW01 cells [4] = assay: Cytosolic Ca2+ concentration (Fluo-3, flow cytometry); assay type: cell-based, human; settings: IC50 concentration, 24 hours
# Protocol: (§2) The cytosolic and mitochondrial Ca^2+ concentrations were measured using fluo-3 and Rhod-2, respectively. The intensity of de-esterification of intracellular AM esters in the THF-ACGs treated or control tumor cells were measured after 30 mins of incubation. For each analysis, 10,000 events were recorded and results were analyzed using De Novo software.
# NPC-TW01 cells [5] = assay: Cell cycle distribution by PI staining and flow cytometry; assay type: cell-based, human; settings: IC50 concentration, 24 hours
# Protocol: To measure the THF-ACGs effect on the cell cycle distribution, the THF-ACGs-treated cells were collected, fixed with ice-cold alcohol, treated with RNase and stained with propidium iodide. The DNA content of each sample was evaluated by FACScan flow cytometer and ratio of cell cycle phases were determined by ModFit software (Verity Software House Inc., Topsham, ME).
# NPC-TW01 cells [6] = assay: Annexin-V/PI apoptosis assay by flow cytometry; assay type: cell-based, human; settings: IC50 concentration, 36 hours
# Protocol: THF-ACGs induced apoptotic phenomena were monitored by The Annexin V-FITC Apoptosis Detection Kit II (BD Biosciences Pharmingen) according to the manufacturer’s instructions. Briefly, THF-ACGs-treated or control cells were collected and resuspended in 400 μL 1 × binding buffer at a concentration of ~1 × 10^6 cells/ml, and 5 μL of purified recombinant Annexin V and PI reagent were added. After incubation at room temperature for 15 min in the dark, the intensity of Annexin V and PI was measured by flow cytometer immediately and results were analyzed using De Novo software (MultiCycle AV Plug-in for FCS Express).
# OECM-1 cells = assay: Growth inhibition assay (MTT), OECM-1; assay type: cell-based; settings: Homo sapiens, OECM1, Supplemental Table 1, read-out: Growth inhibitory activity IC50, OECM-1
# Protocol: as §1
# NPC-TW01 cells [7] = assay: Mitochondrial Ca2+ concentration (Rhod-2, flow cytometry); assay type: cell-based, human; settings: 24 hours
# Protocol: as §2
# SCC-25 cells = assay: Growth inhibition assay (MTT), SCC-25; assay type: cell-based; settings: Homo sapiens, Supplemental Table 1, read-out: Growth inhibitory activity IC50, SCC-25
# Protocol: as §1
# [8] = treated for three generations, read-out: Growth inhibitory activity IC50, NPC-TW01
molecule,measurement,setting,value
"CN(Cc1cnc2nc(N)nc(N)c2n1)c1ccc(C(=O)N[C@@H](CCC(=O)O)C(=O)O)cc1 [methotrexate, reference compound]",IC50,FaDu cells,0.0921 µM
same,IC50,HONE R-MTX cells; footnote a,39.6 µM
same,IC50,NPC-TW01 cells [1]; [8],0.043 µM
same,IC50,HT-1080 cells,0.0141 µM
same,IC50,HONE-1 cells,0.0657 µM
same,IC50,Jurkat cells,0.0183 µM
same,IC50,H226 cells,0.0398 µM
same,IC50,TW01-R-MTX cells; footnote b,1900 µM
same,IC50,Hep 3B cells,> 2 µM
same,IC50,Detroit 551 cells; footnote a,2 µM
"CC(=O)O[C@H]1C(=O)[C@@]2(C)[C@H]([C@H](OC(=O)c3ccccc3)[C@]3(O)C[C@H](OC(=O)[C@H](O)[C@@H](NC(=O)c4ccccc4)c4ccccc4)C(C)=C1C3(C)C)[C@]1(OC(C)=O)CO[C@@H]1C[C@@H]2O [paclitaxel, Paclitaxel]",Overall tumor volume between weeks 6 and 13,NPC-TW01 xenograft,tumor continued growth slowly
Cbz-ATAD-CH2F,Effect of caspase-12 inhibitor pretreatment on squamostatin A toxicity against NPC-TW01 cell growth,NPC-TW01 cells [2],significantly block the toxicity of squamostatin A
CCCCCCCCCCCC[C@@H](O)[C@H]1CC[C@@H]([C@@H](O)CCCCC(=O)CCCCCCCC2=C[C@H](C)OC2=O)O1 [corossolone],IC50,SCC-15 cells,> 2 µM
same,Decrease of mitochondrial membrane potential vs Ctrl,NPC-TW01 cells [3],27%
same,"Mitochondrial membrane potential GEO mean value, Treated",NPC-TW01 cells [3],777
same,IC50,FaDu cells; footnote a,> 2 µM
same,IC50,HONE R-MTX cells,0.147 µM
same,IC50,"NPC-TW01 cells [1]; Supplemental Table 1, read-out: Growth inhibitory activity IC50, NPC-TW01 (Supplemental Table 1)",0.0313 µM
same,IC50,NPC-TW01 cells [1]; [8],0.121 µM
same,IC50,HT-1080 cells,0.705 µM
same,"Ca2+ Cytosol (Fluo-3) GEO mean value, Treated",NPC-TW01 cells [4],149.2
same,IC50,HONE-1 cells,0.132 µM
same,IC50,Jurkat cells,0.0003 µM
same,"Cell cycle distribution, G0/G1",NPC-TW01 cells [5],40.9%
same,"Cell cycle distribution, G2/M",NPC-TW01 cells [5],30.5%
same,"Cell cycle distribution, S",NPC-TW01 cells [5],28.6%
same,IC50,H226 cells; footnote a,> 2 µM
same,IC50,TW01-R-MTX cells,0.0288 µM
same,"Annexin-V positive, E (early phase apoptosis)",NPC-TW01 cells [6],4.9%
same,"Annexin-V positive, L (late phase apoptosis)",NPC-TW01 cells [6],7.4%
same,IC50,OECM-1 cells,> 2 µM
same,"Ca2+ Mitochondria (Rho-2) GEO mean value, Treated",NPC-TW01 cells [7]; IC50 concentration,149.2
same,Increase of mitochondrial Ca2+ (Rho-2) vs Ctrl,NPC-TW01 cells [7]; IC50 concentration,29%
same,IC50,Hep 3B cells,> 2 µM
same,IC50,SCC-25 cells,> 2 µM
same,IC50,Detroit 551 cells,0.354 µM
"NCCOB(c1ccccc1)c1ccccc1 [2-APB, 2-Aminoethoxydiphenyl borate, reference compound]",Content of mitochondrial calcium on squamostatin A treatment in the presence of 2-APB,"NPC-TW01 cells [7]; 2-APB 10 μM, squamostatin A IC50 concentration",diminish the content of mitochondrial calcium
